Measurements published in patent US8440707B2, “Antagonists of lysophosphatidic acid receptors” (Amira Pharmaceuticals, Inc., priority 2008, dated 2013).

Key:
[1] = system: CCl4-induced liver fibrosis; test: Mouse carbon tetrachloride (CCl4)-induced liver fibrosis model; type: in vivo; conditions: for collagen deposition in the liver: as compared to the untreated group
Experimental: Female C57BL/6 mice (Harlan, 20-25 g) housed 4/cage are given free access to food and water and allowed to acclimate for at least 7 days prior to test initiation. After the habituation phase, mice receive CCl4 (0.5-1.0 ml/kg body weight) diluted in corn oil vehicle (100 μL volume) via i.p. injection twice a week for 4-6 weeks. (Higazi, A. A. et al., Clin Exp Immunol. 2008 April; 152(1):163-73. Epub 2008 Feb. 14). Control mice receive an equivalent volume of corn oil vehicle only. Test compound or vehicle is delivered po, ip or sc daily. At the end of the study (4-6 weeks after first i.p. injection of CCl4), mice are sacrificed using inhaled isoflurane and blood is drawn via cardiac puncture for subsequent analysis of ALT/AST levels. The liver is harvested, and one half of the liver is frozen at −80° C. and the other half is fixed in 10% neutral buffered formalin for histological assessment of liver fibrosis using light microscopy (10× magnification). Liver tissue homogenates are analyzed for collagen levels using Sircol (Biocolor Ltd, UK). Fixed Liver tissue is stained using hematoxylin and eosin (H&E) and trichrome and liver fibrosis is determined by quantitative, computer-assisted densitometry of collagen in liver tissue sections using light microscopy. Plasma and liver tissue lysates are also analyzed for concentrations of inflammatory, pro-fibrotic and tissue injury biomarkers including transforming growth factor β1, hyaluronic acid, tissue inhibitor of metalloproteinase-1, matrix matelloproteinase-7, connective tissue growth factor and lactate dehydrogenase activity, using commercially available ELISA. The resulting data are plotted using Graphpad prism and statistical differences between groups determined.

[2] = system: bleomycin-induced lung fibrosis; test: Bleomycin-induced lung fibrosis model in mice; type: in vivo
Excerpt: Female CD-1 mice (Harlan, 25-30 g) are housed 4 per cage, given free access to food and water and allowed to acclimate for at least 7 days prior to test initiation. After the habituation phase, mice are lightly anesthetized with isoflurane (5% in 100% O2) and administered with bleomycin sulfate (0.01-5 U/kg, Henry Schein) via intratracheal instillation (Cuzzocrea S et al. Am J Physiol Lung Cell Mol. Physiol. 2007 May; 292(5):[…]-104. Epub 2007 Jan. 12). Mice are returned to their cages and monitored daily for the duration of the experiment. Test compound or vehicle is delivered po, ip or sc daily. The route and frequency of dosing is based on previously determined pharmacokinetic properties. All animals are sacrificed using inhaled isoflurane 3, 7, 14, 21 or 28 days after bleomycin instillation. Following sacrifice, mice are intubated with a 20 gauge angiocatheter attached to a 1 ml syringe. Lungs are lavaged with saline to obtain bronchoalveolar lavage fluid (BALF) and then removed and fixed in 10% neutral buffered formalin for subsequent histopathological analysis. BALF is centrifuged for 10 min at 800×g to pellet the cells and the cell supernatant removed and frozen at -80° C. for subsequent protein analysis using the DC protein assay kit (Biorad, Hercules, Calif.) and soluble collagen analysis using Sircol (Biocolor Ltd, UK). BALF is analyzed for concentrations of inflammatory, pro-fibrotic and tissue injury biomarkers including transforming growth factor β1, hyaluronic acid, tissue inhibitor of metalloproteinase-1, matrix matelloproteinase-7, connective tissue growth factor and lactate dehydrogenase activity, using commercially available ELISA. The cell pellet is re-suspended in PBS. Total cell counts are then obtained using a Hemavet hematology system (Drew Scientific, Wayne, Pa.) and differential cells counts are determined using Shandon cytospin (Thermo Scientific, Waltham, Mass.). Lung tissue is stained using hematoxylin and eosin (H&E) and trichrome and lung fibrosis is determined by semiquantitative histopathological scoring (Ashcroft T. et al. J. Clin. Path. 1988; 41; 4, 467-470) using light microscopy (10× magnification) and quantitative, computer-assisted densitometry of collagen in lung tissue sections using light microscopy. The data are plotted using Graphpad prism and statistical differences between groups determined.

[3] = system: highly peritoneal metastatic pancreatic cancer cell line; conditions: cited from earlier work
[4] = system: pancreatic cancer cell lines; conditions: cited from earlier work
bone metastasis = conditions: cited from earlier work
renal fibrosis = conditions: compared with LPA1 (−/−) mice, in which renal fibrosis was significantly attenuated; cited from earlier work
[5] = chronic setting (14-days only), single bleomycin instillation (3.0 units)
[6] = chronic setting (14 and 28 day), single bleomycin (1.5 units/kg) instillation
[7] = chronic setting, repeated bleomycin (3.0-5.0 units/kg/week) instillations

In the case of `Cc1noc(-c2ccc(-c3ccc(CC(=O)O)cc3)cc2)c1NC(=O)O[C@H](C)c1ccccc1` [Compound 37, {4′-[3-Methyl-4-((R)-1-phenyl-ethoxycarbonylamino)-isoxazol-5-yl]-biphenyl-4-yl}-acetic acid], the “collagen deposition in the liver” value [1] is reported as “significantly reduced”, the “lactate in the BALF” value ([2]; acute setting (3-day)) is reported as “reduced” and the “tissue inhibitor of metalloproteinase-1 (TIMP-1; pro-fibrotic marker) concentrations in BALF” value ([2]; acute setting (3 day)) is reported as “reduced”. The “total protein in broncheoalveolar lavage fluid (BALF)” value ([2]; acute setting (3 day)) was “reduced”, the fibrosis [2, 5] was “decreased” and the inflammatory cell influx [2, 5] was “decreased”.

For `Cc1noc(-c2ccc(CSCCC(=O)O)cc2)c1NC(=O)OC(C)c1ccccc1Cl` (centres unmarked) [Ki16425], the “LPA-induced and ascites-induced invasion activity” value [3] is listed as “blocked”, the “in vitro migration in response to LPA and peritoneal fluid (ascites) from pancreatic cancer patients” value [4] is listed as “effectively blocked” and the “metastasis to bone in vivo” value (bone metastasis) is listed as “inhibit”. For the same compound, the “development of renal fibrosis in UUO mice” value (renal fibrosis) was “closely resembled the LPA1 (−/−) mice”.

With `Cc1noc(-c2ccc(-c3ccc(CC(=O)O)cc3)cc2)c1NC(=O)O[C@H](C)c1ccccc1Cl` [Compound 27, (4′-{4-[(R)-1-(2-Chloro-phenyl)-ethoxycarbonylamino]-3-methyl-isoxazol-5-yl}-biphenyl-4-yl)-acetic acid] the “effect on collagen deposition compared with pirfenidone” value ([1]; 30 mg/kg, po, qd) was “same effect”, the “collagen deposition in the liver” value [1] was “significantly reduced” and the “lactate dehydrogenase activity (LDH; tissue injury marker) in BALF” value ([2]; acute setting (3 day)) was “significantly reduced”. The “tissue inhibitor of metalloproteinase-1 (TIMP-1; pro-fibrotic marker) concentrations in BALF” value ([2]; acute setting (3 day)) was “significantly reduced”, the “total protein in broncheoalveolar lavage fluid (BALF)” value ([2]; acute setting (3 day)) was “significantly reduced” and the fibrosis [2, 6] was “decreased”. The inflammatory cell influx [2, 6] was “decreased”, the mouse body weight [2, 6] was “maintained” and the lung fibrosis [2, 7] was “decreased”. For the same compound, the pulmonary resistance [2, 7] was “decreased”.
